# Test results reported in patent US9233979B2, “Compounds that are ERK inhibitors” (Merck Sharp & Dohme Corp., priority 2012, dated 2016).
# Target: phosphorylated active hERK2 enzyme (Homo sapiens (Human), UniProt P28482)
# Assay: Active Human ERK2 (hERK2) Activity Assay (IMAP-FP)
# Format: biochemical
# Conditions: Table 5, 0.5 nM hERK2, 30 μM ATP, 10 point titration, read-out: AERK2 IC50
# Method: Assays Active Human ERK2 (hERK2) Activity Assay:
# Activated ERK2 activity was determined in an IMAP-FP assay (Molecular Devices). […] The final reaction in each well of 25 μL consists of 0.5 nM hERK2, 900 nM unlabeled peptide, 80 nM labeled-peptide, and 30 μM ATP. Phosphorylation reactions were allowed to proceed for 60 minutes and were immediately quenched by the addition of 60 μL IMAP detection beads (1:1000 dilutions) in IMAP binding buffer (Molecular Devices) with 24 mM NaCl. Plates were read on EnVision reader after 60 minutes binding equilibration using Fluorescence Polarization protocol (Perkin Elmer).
# phosphorylated active hERK2 enzyme, sequence (P28482 whole entry): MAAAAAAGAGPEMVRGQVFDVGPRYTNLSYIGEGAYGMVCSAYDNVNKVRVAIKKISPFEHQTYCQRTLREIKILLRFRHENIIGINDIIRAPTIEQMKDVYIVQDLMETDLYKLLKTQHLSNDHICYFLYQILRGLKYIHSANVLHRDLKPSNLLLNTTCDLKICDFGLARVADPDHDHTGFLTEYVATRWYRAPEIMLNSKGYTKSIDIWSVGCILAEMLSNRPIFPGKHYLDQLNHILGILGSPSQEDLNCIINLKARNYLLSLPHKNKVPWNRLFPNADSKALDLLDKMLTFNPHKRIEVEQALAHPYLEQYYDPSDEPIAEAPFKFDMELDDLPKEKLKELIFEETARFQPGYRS
row,IC50 [nM],SMILES
1,0.66,"CC(=O)Nc1n[nH]c2cc(NC(=O)N[C@H](C)c3ccccc3)ncc12 [Example 47, (R)—N-(6-(3-(1-Phenylethyl)ureido)-1H-pyrazolo[4,3-c]pyridin-3-yl)acetamide]"
2,1.2,"COC[C@@H](NC(=O)Nc1cc2[nH]nc(N3CCOCC3C)c2cn1)c1ccccc1 (stereo partly drawn) [Example 27, 1-[(1S)-2-methoxy-1-phenylethyl]-3-[3-(3-methylmorpholin-4-yl)-1H-pyrazolo[4,3-c]pyridin-6-yl]urea]"
3,2.81,"C[C@@H](NC(=O)Nc1cc2[nH]nc(N)c2cn1)c1ccc(F)cc1 [Example 44, 1-(3-amino-1H-pyrazolo[4,3-c]pyridin-6-yl)-3-[(1R)-1-(4-fluorophenyl)ethyl]urea]"
4,2300,"COC[C@@H](NC(=O)Nc1cc2[nH]nc(N3CC(OC)C3)c2cn1)c1ccccc1 [Example 6, 1-[3-(3-methoxyazetidin-1-yl)-1H-pyrazolo[4,3-c]pyridin-6-yl]-3-[(1S)-2-methoxy-1-phenylethyl]urea]"
5,652,"C[C@@H](NC(=O)Nc1cc2[nH]nc(NS(C)(=O)=O)c2cn1)c1ccccc1 [Example 51, N-[6-({[(1R)-1-phenylethyl]carbamoyl}amino)-1H-pyrazolo[4,3-c]pyridin-3-yl]methanesulfonamide]"

# Same assay, conditions: Table 6, 0.5 nM hERK2, 30 μM ATP, 10 point titration, read-out: AERK2 IC50
row,IC50 [nM],SMILES
1,0.4,"CC(C)(O)[C@@H](NC(=O)Nc1cc2[nH]nc(N3CCOCC3)c2cn1)c1ccc(F)cc1 [Example 438, 1-[(1S)-1-(4-fluorophenyl)-2-hydroxy-2-methylpropyl]-3-(3-morpholin-4-yl-1H-pyrazolo[4,3-c]-pyridin-6-yl)urea]"
2,1.6,"CC(C)CC(=O)Nc1n[nH]c2cc(NC(=O)N[C@H](C)c3ccccc3)ncc12 [Example 209, 3-methyl-N-[6-({[(1R)-1-phenylethyl]-carbamoyl}amino)-1H-pyrazolo[4,3-c]pyridin-3-yl]-butanamide]"
3,2.2,"C[C@H](Nc1n[nH]c2cc(NC(=O)N[C@H](C)c3ccccc3)ncc12)C(F)F [Example 354, 1-(3-{[(1S)-2,2-difluoro-1-methyl-ethyl]amino}-1H-pyrazolo[4,3-c]-pyridin-6-yl)-3-[(1R)-1-phenylethyl]urea]"
4,0.3,O=C(Nc1cc2[nH]nc(NC(=O)N3CC(F)(F)C3)c2cn1)N[C@H]1c2ccccc2OCC[C@H]1O [Example 396]
5,33.3,"CCN(C(C)=O)c1n[nH]c2cc(NC(=O)N[C@H](C)c3ccccc3)ncc12 [Example 350, N-ethyl-N-[6-({[(1R)-1-phenyl-ethyl]carbamoyl}-amino)-1H-pyrazolo[4,3-c]-pyridin-3-yl]-acetamide]"
6,1.2,"C[C@@H](NC(=O)Nc1cc2[nH]nc(N)c2c(Cl)n1)c1ccccc1 [Example 444, 1-(3-amino-4-chloro-1H-pyrazolo[4,3-c]-pyridin-6-yl)-3-[(1R)-1-phenylethyl]urea]"
7,1,"COC[C@@H](NC(=O)Nc1cc2[nH]nc(NC3CC3)c2cn1)c1ccccc1 [Example 329, 1-[3-(cyclopropyl-amino)-1H-pyrazolo[4,3-c]-pyridin-6-yl]-3-[(1S)-2-methoxy-1-phenylethyl]urea]"
8,1.8,"C[C@@H](NC(=O)Nc1cc2[nH]nc(NCC3CC3)c2cn1)c1ccccc1 [Example 159, 1-{3-[(cyclopropyl-methyl)amino]-1H-pyrazolo[4,3-c]-pyridin-6-yl}-3-[(1R)-1-phenylethyl]urea]"
9,9.7,"C[C@@H](NC(=O)Nc1cc2[nH]nc(N3CC(O)C3)c2cn1)c1ccccc1 [Example 79, 1-[3-(3-hydroxy-azetidin-1-yl)-1H-pyrazolo[4,3-c]-pyridin-6-yl]-3-[(1R)-1-phenylethyl]urea]"
10,0.5,"CCNc1n[nH]c2cc(NC(=O)N[C@@H](c3ccccc3)C(C)(C)OC)ncc12 [Example 431, 1-[3-(ethylamino)-1H-pyrazolo[4,3-c]pyridin-6-yl]-3-[(1S)-2-methoxy-2-methyl-1-phenylpropyl]urea]"
11,0.7,"CCNc1n[nH]c2cc(NC(=O)N[C@@H](c3ccccc3)C3(O)CCCC3)ncc12 [Example 236, 1-[3-(ethylamino)-1H-pyrazolo[4,3-c]pyridin-6-yl]-3-[(S)-(1-hydroxy-cyclopentyl)-(phenyl)methyl]-urea]"
12,1.6,"CC(C)(O)[C@@H](NC(=O)Nc1cc2[nH]nc(N3CCC3)c2cn1)c1ccccc1 [Example 104, 1-(3-azetidin-1-yl-1H-pyrazolo[4,3-c]pyridin-6-yl)-3-[(1S)-2-hydroxy-2-methyl-1-phenylpropyl]urea]"
13,1,"CCNc1n[nH]c2cc(NC(=O)N[C@@H]3CN(C)C[C@H]3c3ccccc3)ncc12 [Example 253, 1-[3-(ethylamino)-1H-pyrazolo[4,3-c]pyridin-6-yl]-3-[(3S,4R)-1-methyl-4-phenylpyrrolidin-3-yl]urea]"
14,2.4,"CC(C)(O)[C@@H](NC(=O)Nc1cc2[nH]nc(NC(=O)N3CCOCC3)c2cn1)c1ccc(F)cc1 [Example 133, N-[6-({[(1S)-1-(4-fluorophenyl)-2-hydroxy-2-methylpropyl]-carbamoyl}amino)-1H-pyrazolo[4,3-c]pyridin-3-yl]-morpholine-4-carboxamide]"
15,11.7,"C[C@@H](NC(=O)Nc1cc2[nH]nc(NC(=O)c3ccccn3)c2cn1)c1ccccc1 [Example 212, N-[6-({[(1R)-1-phenylethyl]-carbamoyl}amino)-1H-pyrazolo[4,3-c]pyridin-3-yl]-pyridine-2-carboxamide]"
16,315,"CCNc1n[nH]c2cc(NC(=O)N[C@H](c3ccccc3)[C@@H]3CCCO3)ncc12 [Example 151, 1-[3-(ethylamino)-1H-pyrazolo[4,3-c]pyridin-6-yl]-3-{(R)-phenyl[(2S)-tetrahydrofuran-2-yl]methyl}urea]"
17,2.2,"C[C@@H](NC(=O)Nc1cc2[nH]nc(NCC3CCC3)c2cn1)c1ccccc1 [Example 213, 1-{3-[(cyclobutylmethyl)amino]-1H-pyrazolo[4,3-c]-pyridin-6-yl}-3-[(1R)-1-phenylethyl]urea]"
18,0.3,"CC(C)(O)[C@@H](NC(=O)Nc1cc2[nH]nc(N3CCc4ncsc4C3)c2cn1)c1ccccc1 [Example 124, 1-[3-(6,7-dihydro[1,3]thiazolo-[5,4-c]pyridin-5(4H)-yl)-1H-pyrazolo[4,3-c]pyridin-6-yl]-3-[(1S)-2-hydroxy-2-methyl-1-phenylpropyl]urea]"
19,3.7,"CC(C)(O)[C@@H](NC(=O)Nc1cc2[nH]nc(NC(=O)N3C[C@H]4COC[C@H]4C3)c2cn1)c1ccc(F)cc1 [Example 457, (3aR,6aS)-N-(6-(3-((S)-1-(4-fluorophenyl)-2-hydroxy-2-methylpropyl)-ureido)-1H-pyrazolo[4,3-c]-pyridin-3-yl)-tetrahydro-1H-furo[3,4-c]pyrrole-5(3H)-carboxamide]"
20,2.9,"CCNc1n[nH]c2cc(NC(=O)N[C@H](C)c3ccccc3)nc(C)c12 [Example 331, (R)-1-(3-(ethylamino)-4-methyl-1H-pyrazolo[4,3-c]pyridin-6-yl)-3-(1-phenylethyl)urea]"
21,9.4,"COC[C@@H](NC(=O)Nc1cc2[nH]nc(Nc3ccccc3F)c2cn1)c1ccccc1 [Example 384, 1-{3-[(2-fluoro-phenyl)amino]-1H-pyrazolo[4,3-c]-pyridin-6-yl}-3-[(1S)-2-methoxy-1-phenylethyl]urea]"
22,0.7,"COC[C@@H](NC(=O)Nc1cc2[nH]nc(NCC3CCC3)c2cn1)c1ccccc1 [Example 156, 1-{3-[(cyclobutyl-methyl)amino]-1H-pyrazolo[4,3-c]-pyridin-6-yl}-3-[(1S)-2-methoxy-1-phenylethyl]urea]"
23,32.4,"CN(C)c1ncccc1CNC(=O)Nc1cc2[nH]nc(N)c2cn1 [Example 274, 1-(3-amino-1H-pyrazolo[4,3-c]-pyridin-6-yl)-3-{[2-(dimethylamino)-pyridin-3-yl]-methyl}urea]"
24,0.4,"C[C@@H](O)[C@@H](NC(=O)Nc1cc2[nH]nc(N3CCc4nn(C)cc4C3)c2cn1)c1ccccc1 [Example 393, 1-[(1S,2R)-2-hydroxy-1-phenylpropyl]-3-(2′-methyl-2′,4′,6′,7′-tetrahydro-1H-3,5′-bipyrazolo[4,3-c]-pyridin-6-yl)urea]"
25,39.2,"C[C@@H](NC(=O)Nc1cc2[nH]nc(NC3=CC(=O)CC3)c2cn1)c1ccccc1 [Example 73, (R)-1-(3-((3-oxocyclopent-1-en-1-yl)amino)-1H-pyrazolo[4,3-c]pyridin-6-yl)-3-(1-phenylethyl)urea]"
26,4.1,"COC[C@H](NC(=O)Nc1ncc2c(NC(C)C)n[nH]c2c1F)c1ccccc1 [Example 323, 1-{7-fluoro-3-[(1-methylethyl)amino]-1H-pyrazolo[4,3-c]pyridin-6-yl}-3-[(1R)-2-methoxy-1-phenylethyl]urea]"
27,1.7,"COC(=O)Nc1n[nH]c2cc(NC(=O)N[C@H](C)c3ccc(Cl)c(O)c3)ncc12 [Example 307, methyl [6-({[(1R)-1-(4-chloro-3-hydroxyphenyl)-ethyl]carbamoyl}-amino)-1H-pyrazolo[4,3-c]-pyridin-3-yl]-carbamate]"
28,9.7,"C[C@@H](NC(=O)Nc1cc2[nH]nc(N3CCC(C#N)CC3)c2cn1)c1ccccc1 [Example 423, 1-[3-(4-cyanopiperidin-1-yl)-1H-pyrazolo[4,3-c]-pyridin-6-yl]-3-[(1R)-1-phenylethyl]urea]"
29,14.7,"COC[C@@H](NC(=O)Nc1cc2[nH]nc(Nc3cnn(C)c3)c2cn1)c1ccc(F)cc1 [Example 372, 1-[(1S)-1-(4-fluorophenyl)-2-methoxyethyl]-3-{3-[(1-methyl-1H-pyrazol-4-yl)-amino]-1H-pyrazolo[4,3-c]-pyridin-6-yl}urea]"
30,5.9,"C[C@@H]1Cc2nc(NC(=O)N[C@H](C)c3ccccc3)cc3[nH]nc(c23)N1 [Example 138, 1-((R)-4-methyl-1,3,4,5-tetrahydropyrazolo[3,4,5-de][1,6]naphthyridin-7-yl)-3-((R)-1-phenylethyl)urea]"
